Assay results reported in ChEMBL document CHEMBL1201862, “PubChem BioAssay data set” (2004).
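Compound exposure: 48 hours, 5 concentrations, 96-well plates. GI50 marks 50% less growth.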 Activity calls are given as the source filed them. Rule as the data show it: active = GI50 up to about 1.1 µM and inactive = higher.

Columns and labels:
Test in all cases: DTP human tumour cell line panel, 48 h
COLO 205 = system: COLO 205
HCT-116 = system: HCT-116
HL-60 = system: HL-60
HOP-62 = system: HOP-62
HOP-92 = system: HOP-92
IGROV-1 = system: IGROV-1
KM-20L2 = system: KM-20L2
M14 = system: M14
MOLT-4 = system: MOLT-4
Malme-3M = system: Malme-3M
OVCAR-8 = system: OVCAR-8
SF-268 = system: SF-268
SF-295 = system: SF-295
SF-539 = system: SF-539
SK-MEL-28 = system: SK-MEL-28
SK-OV-3 = system: SK-OV-3
SN12C = system: SN12C
SW-620 = system: SW-620
U-251 = system: U-251
UO-31 = system: UO-31

Measured: GI50

C=CCC1C(=O)C(C(=O)OC)N2CCc3c([nH]c4ccccc34)C12 (stereo not given)
inactive: COLO 205 > 100 µM | HCT-116 > 100 µM | HL-60 > 100 µM | HOP-62 > 100 µM | HOP-92 57.4 µM | IGROV-1 > 100 µM | KM-20L2 > 100 µM | M14 > 100 µM | MOLT-4 64.9 µM | Malme-3M > 100 µM | OVCAR-8 > 100 µM | SF-268 > 100 µM | SF-295 > 100 µM | SF-539 > 100 µM | SK-MEL-28 > 100 µM | SK-OV-3 > 100 µM | SN12C > 100 µM | SW-620 > 100 µM | U-251 > 100 µM | UO-31 > 100 µM

Cc1ccccc1C(=O)Oc1ccc(OCc2ccccc2)cc1
inactive: COLO 205 > 100 µM | HCT-116 53.5 µM | HL-60 5.82 µM | HOP-62 > 100 µM | HOP-92 > 100 µM | IGROV-1 > 100 µM | KM-20L2 75.5 µM | M14 > 100 µM | MOLT-4 9.44 µM | Malme-3M > 100 µM | OVCAR-8 > 100 µM | SF-268 > 100 µM | SF-295 > 100 µM | SF-539 > 100 µM | SK-MEL-28 > 100 µM | SK-OV-3 > 100 µM | SN12C 93.8 µM | SW-620 > 100 µM | U-251 > 100 µM | UO-31 37.2 µM

O=C(CC/C(CC(=O)c1ccc(Cl)cc1)=N/O)Nc1ccc(Cl)c(Cl)c1
inactive: COLO 205 > 100 µM | HCT-116 > 100 µM | HL-60 > 100 µM | HOP-62 > 100 µM | HOP-92 82.4 µM | IGROV-1 47.6 µM | KM-20L2 36.2 µM | M14 > 100 µM | MOLT-4 53.2 µM | Malme-3M > 100 µM | OVCAR-8 > 100 µM | SF-268 > 100 µM | SF-295 > 100 µM | SF-539 > 100 µM | SK-MEL-28 > 100 µM | SK-OV-3 > 100 µM | SN12C > 100 µM | SW-620 > 100 µM | U-251 > 100 µM | UO-31 98.4 µM
